Data: ChEMBL document CHEMBL4359906, “Design and synthesis of new N-terminal fatty acid modified-antimicrobial peptide analogues with potent in vitro biological activity” (Eur J Med Chem, 2019)
≈ marks a conversion by molar mass, not a printed value. Calls of active or inactive are those of the source. No cut-off for these calls is given here.

Key:
Escherichia coli [1] = assay: Antibacterial activity against Escherichia coli ATCC 43837 after 18 hrs by CLSI based broth microdilution method; type: functional; conditions: ATCC 43837, 18 h
Klebsiella pneumoniae [2] = assay: Antibacterial activity against Klebsiella pneumoniae ATCC 700603 after 18 hrs by CLSI based broth microdilution method; type: functional; conditions: Klebsiella pneumoniae, 700603, 18 h
Pseudomonas aeruginosa [3] = assay: Antibacterial activity against Pseudomonas aeruginosa ATCC 27853 after 18 hrs by CLSI based broth microdilution method; type: functional; conditions: ATCC 27853, 18 h
Staphylococcus aureus [4] = assay: Antibacterial activity against methicillin-resistant Staphylococcus aureus 936 after 18 hrs by CLSI based broth microdilution method; type: functional; conditions: Staphylococcus aureus, 936, 18 h
Bacillus subtilis = assay: Antibacterial activity against Bacillus subtilis ATCC 23857 after 18 hrs by CLSI based broth microdilution method; type: functional; conditions: ATCC 23857, 18 h
Erythrocyte = assay: Hemolytic activity in human RBC measured after 1 hr by microplate reader analysis; type: ADME, cell-based
[5] = Selectivity index, ratio of MHC10 for human RBC to geometric mean of peptide MIC for gram positive bacteria; type: toxicity; conditions: human red blood cells, read-out: Selectivity Index
[6] = Selectivity index, ratio of MHC10 for human RBC to geometric mean of peptide MIC for gram negative bacteria; type: toxicity; conditions: human red blood cells, read-out: Selectivity Index
Escherichia coli [7] = assay: Potentiation of polymyxin B-induced antibacterial activity against Escherichia coli ATCC 25922 assessed as FICI after 18 hrs by checker board assay; type: functional
Klebsiella pneumoniae [8] = assay: Potentiation of polymyxin B-induced antibacterial activity against Klebsiella pneumoniae ATCC 700603 assessed as FICI after 18 hrs by checker board assay; type: functional
Pseudomonas aeruginosa [9] = assay: Potentiation of polymyxin B-induced antibacterial activity against Pseudomonas aeruginosa ATCC 27853 assessed as FICI after 18 hrs by checker board assay; type: functional
Escherichia coli [10] = assay: Potentiation of rifampicin-induced antibacterial activity against Escherichia coli ATCC 25922 assessed as FICI after 18 hrs by checker board assay; type: functional
Klebsiella pneumoniae [11] = assay: Potentiation of rifampicin-induced antibacterial activity against Klebsiella pneumoniae ATCC 700603 assessed as FICI after 18 hrs by checker board assay; type: functional
Pseudomonas aeruginosa [12] = assay: Potentiation of rifampicin-induced antibacterial activity against Pseudomonas aeruginosa ATCC 27853 assessed as FICI after 18 hrs by checker board assay; type: functional
Escherichia coli [13] = assay: Antibacterial activity against Escherichia coli ATCC 25922 at 0.5 times MIC incubated for 18 hrs measured for 15 passages by CLSI based broth microdilution method; type: functional, organism-based
Escherichia coli [14] = assay: Antibiofilm activity against Escherichia coli ATCC 25922 after 24 hrs by crystal violet staining based assay; type: functional, organism-based
Staphylococcus aureus [15] = assay: Antibiofilm activity against Staphylococcus aureus ATCC 25923 after 24 hrs by crystal violet staining based assay; type: functional, organism-based
Pseudomonas aeruginosa [16] = assay: Antibiofilm activity against Pseudomonas aeruginosa ATCC 27853 after 24 hrs by crystal violet staining based assay; type: functional, organism-based
Escherichia coli [17] = assay: Antibiofilm activity against Escherichia coli ATCC 25922 at 2 times MIC after 24 hrs by crystal violet staining based assay; type: functional, organism-based
Escherichia coli [18] = assay: Antimicrobial activity against Escherichia coli ATCC 25922 at 1 mM preincubated for 6 hrs in presence of 2000 ug/ml trypsin and measured after 18 hrs by microplate reader analysis; type: functional, organism-based
Escherichia coli [19] = assay: Antimicrobial activity against Escherichia coli ATCC 25922 at 1 mM preincubated for 6 hrs in presence of 2 ug/ml chymotrypsin and measured after 18 hrs by microplate reader analysis; type: functional, organism-based
Escherichia coli [20] = assay: Ratio of MIC for Escherichia coli ATCC 25922 preincubated for 1 hr in presence of 10% mouse serum and measured after 18 hrs to MIC for antibacterial activity against Escherichia coli ATCC 25922 after 18 hrs; type: functional
Escherichia coli [21] = assay: Ratio of MIC for Escherichia coli ATCC 25922 preincubated for 6 hrs in presence of 10% mouse serum and measured after 18 hrs to MIC for antibacterial activity against Escherichia coli ATCC 25922 after 18 hrs; type: functional
Escherichia coli [22] = assay: Induction of outer membrane permeabilization in Escherichia coli ATCC 25922 measured up to 12 mins by NPN-dye based assay; type: organism-based
Escherichia coli [23] = assay: Induction of inner membrane permeabilization in Escherichia coli ATCC 43837 assessed as increase in ONPG release at 4 times of MIC by ONPG dye based assay; type: organism-based
Escherichia coli [24] = assay: Disruption of membrane integrity in Escherichia coli ATCC 25922 assessed as membrane damage by measuring PI fluorescence at 4 times of MIC incubated for 1 hr by PI dye based flow cytometric analysis (reference value: 1.35%); type: functional
Escherichia coli [25] = assay: Disruption of membrane integrity in Escherichia coli ATCC 25922 assessed as membrane damage by measuring PI fluorescence at 2 times of MIC incubated for 1 hr by PI dye based flow cytometric analysis (reference value: 1.35%); type: functional
Escherichia coli [26] = assay: Induction of membrane disruption in Escherichia coli ATCC 25922 assessed as rough membrane surface at 4 times of MIC after 2 hrs by SEM analysis; type: functional, organism-based
Escherichia coli [27] = assay: Induction of membrane disruption in Escherichia coli ATCC 25922 assessed as corrugated membrane surface at 4 times of MIC after 2 hrs by SEM analysis; type: functional, organism-based
Escherichia coli [28] = assay: Induction of membrane disruption in Escherichia coli ATCC 25922 assessed as degeneration in membrane at 4 times of MIC after 2 hrs by SEM analysis; type: functional, organism-based
DNA = assay: Binding affinity to Escherichia coli ATCC 25922 genomic DNA after 30 mins by agarose gel electrophoresis; type: nucleic-acid assay
Escherichia coli [29] = assay: Ratio of antibacterial activity against Escherichia coli ATCC 25922 in presence of NaCl to antibacterial activity against Escherichia coli ATCC 25922; type: functional
Escherichia coli [30] = assay: Ratio of antibacterial activity against Escherichia coli ATCC 25922 in presence of MgCl2 to antibacterial activity against Escherichia coli ATCC 25922; type: functional
Staphylococcus aureus [31] = assay: Ratio of antibacterial activity against Staphylococcus aureus ATCC 25923 in presence of NaCl to antibacterial activity against Staphylococcus aureus ATCC 25923; type: functional
Staphylococcus aureus [32] = assay: Ratio of antibacterial activity against Staphylococcus aureus ATCC 25923 in presence of KCl to antibacterial activity against Staphylococcus aureus ATCC 25923; type: functional
Staphylococcus aureus [33] = assay: Ratio of antibacterial activity against Staphylococcus aureus ATCC 25923 in presence of MgCl2 to antibacterial activity against Staphylococcus aureus ATCC 25923; type: functional
Staphylococcus aureus [34] = assay: Ratio of antibacterial activity against Staphylococcus aureus ATCC 25923 in presence of FeCl3 to antibacterial activity against Staphylococcus aureus ATCC 25923; type: functional
Escherichia coli [35] = assay: Induction of membrane disruption in Escherichia coli ATCC 25922 assessed as fracture in membrane at 4 times of MIC after 2 hrs by SEM analysis; type: functional, organism-based
Escherichia coli [36] = assay: Induction of ROS generation in Escherichia coli ATCC 25922; type: functional, organism-based

`CCCCCCCCCC(=O)NCC(=O)N[C@@H](CC(C)C)C(=O)N[C@@H](CC(C)C)C(=O)N[C@H](CCCCN)C(=O)N[C@@H](CCCNC(=N)N)C(=O)N[C@H](C(=O)N[C@H](CCCCN)C(=O)N[C@H](C(=O)N[C@@H](CC(C)C)C(=O)N[C@@H](CC(C)C)C(N)=O)[C@@H](C)O)[C@@H](C)CC` gave an MIC (Escherichia coli [1]) of 8 µM (≈ 10.5 µg/mL), an MIC (Klebsiella pneumoniae [2]) of 16 µM (≈ 20.9 µg/mL) and an MIC (Pseudomonas aeruginosa [3]) of 8 µM (≈ 10.5 µg/mL). The MIC (Staphylococcus aureus [4]) was 8 µM (≈ 10.5 µg/mL), the MIC (Bacillus subtilis) was 8 µM (≈ 10.5 µg/mL) and the MHC10 (Erythrocyte) was 64 µM. The selectivity ratio [5] was 8, the selectivity ratio [6] was 5.33 and the “fractional inhibitory concentration index (FICI)” value (Escherichia coli [7]) was 0.3125. For the same compound, the “fractional inhibitory concentration index (FICI)” value (Klebsiella pneumoniae [8]) was 0.3125, the “fractional inhibitory concentration index (FICI)” value (Pseudomonas aeruginosa [9]) was 0.125 and the “fractional inhibitory concentration index (FICI)” value (Escherichia coli [10]) was 0.1875. The “fractional inhibitory concentration index (FICI)” value (Klebsiella pneumoniae [11]) was 0.3125, the “fractional inhibitory concentration index (FICI)” value (Pseudomonas aeruginosa [12]) was 0.3125 and the Activity (Escherichia coli [13]) was “Active”. The inhibition (Escherichia coli [14]) was “Dose-dependent effect”, the inhibition (Staphylococcus aureus [15]) was “Dose-dependent effect” and the inhibition (Pseudomonas aeruginosa [16]) was “Dose-dependent effect”. The inhibition (Escherichia coli [17]) was “inactive”, the Activity (Escherichia coli [18]) was “Active” and the Activity (Escherichia coli [19]) was “Active”. The Ratio (Escherichia coli [20]) was 1, the Ratio (Escherichia coli [21]) was 1 and the Activity (Escherichia coli [22]) was “Dose-dependent effect”. The Activity (Escherichia coli [23]) was “Active”, the Activity (Escherichia coli [24]) was 75.9% and the Activity (Escherichia coli [25]) was 49.6%. The Activity (Escherichia coli [26]) was “Active”, the Activity (Escherichia coli [27]) was “Active” and the Activity (Escherichia coli [28]) was “Active”. The Activity (DNA) was “Dose-dependent effect”, the Ratio (Escherichia coli [29]) was 2 - 4 and the Ratio (Escherichia coli [30]) was 2 - 4. The Ratio (Staphylococcus aureus [31]) was 2 - 4, the Ratio (Staphylococcus aureus [32]) was 2 - 4 and the Ratio (Staphylococcus aureus [33]) was 2 - 4. For the same compound, the Ratio (Staphylococcus aureus [34]) was 2 - 4, the Activity (Escherichia coli [35]) was “Active” and the Activity (Escherichia coli [36]) was “inactive”.
